Each compound was assayed against T1, KRAS G12C 1-169, his-tagged protein, GDP-loaded (Homo sapiens, UniProt P01116, G12C) (assay: Biochemical assay: covalent modification of KRAS G12C measured by mass spectrometry (RapidFire/TOF or Q-Exactive)). Conditions: covalent binding to (modification of) KRAS G12C after a ten minute incubation period.
T1 construct: KRAS G12C 1-169, his-tagged protein, GDP-loaded
Assay type: binding
How it was run: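 GDP-loaded KRAS G12C 1-169 (his-tagged) at 2 μM or 0.5 μM in 20 mM Hepes, 150 mM NaCl, 1 mM MgCl2, incubated with compound at 100, 30 or 10 μM at room temperature for 10 min, 30 min, 2 h or 24 h, then quenched with formic acid. Intact-protein LC-MS, deconvolved; percent modification from modified versus unmodified protein.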

SMILES	Binding %
C=CC(=O)N1CCN(c2nc(N3CC(N(C)C)C3)nc3c(F)c(-c4c(C)ccc5cnn(C)c45)c(Cl)cc23)C[C@H]1C (atropisomer, axis not shown) [Compound 144, 1-((R)-4-((R)-6-chloro-7-(1,6-dimethyl-1H-indazol-7-yl)-2-(3-(dimethylamino)azetidin-1-yl)-8-fluoroquinazolin-4-yl)-2-methylpiperazin-1-yl)prop-2-en-1-one]	+++ (+++ indicates binding activity greater than 80%)
C=CC(=O)N1C[C@H](C)N(c2nc(OCCN3CC(F)(F)C3)nc3c(F)c(-c4c(C)ccc5cnn(C)c45)c(Cl)cc23)C[C@H]1C (atropisomer, axis not shown) [Compound 146, 1-((2R,5S)-4-((S)-6-chloro-2-(2-(3,3-difluoroazetidin-1-yl)ethoxy)-7-(1,6-dimethyl-1H-indazol-7-yl)-8-fluoroquinazolin-4-yl)-2,5-dimethylpiperazin-1-yl)prop-2-en-1-one]	+ (+ indicates binding activity greater than 0% and up to 50%)
C=CC(=O)N1C[C@H](C)N(c2nc(OCCN3CC(F)(F)C3)nc3c(F)c(-c4c(C)ccc5cnn(C)c45)c(Cl)cc23)C[C@H]1C (atropisomer, axis not shown) [Compound 147, 1-((2R,5S)-4-((R)-6-chloro-2-(2-(3,3-difluoroazetidin-1-yl)ethoxy)-7-(1,6-dimethyl-1H-indazol-7-yl)-8-fluoroquinazolin-4-yl)-2,5-dimethylpiperazin-1-yl)prop-2-en-1-one]	+++ (+++ indicates binding activity greater than 80%)
C=CC(=O)N1C[C@H](C)N(c2nc(N3CC(N(C)C)C3)nc3c(F)c(-c4c(C)ccc5cnn(C6CC6)c45)c(Cl)cc23)C[C@H]1C (atropisomer, axis not shown) [Compound 149, 1-((2R,5S)-4-((S)-6-chloro-7-(1-cyclopropyl-6-methyl-1H-indazol-7-yl)-2-(3-(dimethylamino)azetidin-1-yl)-8-fluoroquinazolin-4-yl)-2,5-dimethylpiperazin-1-yl)prop-2-en-1-one]	+ (+ indicates binding activity greater than 0% and up to 50%)
C=CC(=O)N1C[C@H](C)N(c2nc(N3CC(N(C)C)C3)nc3c(F)c(-c4c(C)ccc5cnn(C6CC6)c45)c(Cl)cc23)C[C@H]1C (atropisomer, axis not shown) [Compound 150, 1-((2R,5S)-4-((R)-6-chloro-7-(1-cyclopropyl-6-methyl-1H-indazol-7-yl)-2-(3-(dimethylamino)azetidin-1-yl)-8-fluoroquinazolin-4-yl)-2,5-dimethylpiperazin-1-yl)prop-2-en-1-one]	+++ (+++ indicates binding activity greater than 80%)
C=CC(=O)N1[C@H](C)CN(c2nc(N3CC(N(C)C)C3)nc3c(F)c(-c4c(C)ccc5[nH]nc(C)c45)c(Cl)cc23)C[C@@H]1C (atropisomer, axis not shown) [Compound 151, 1-((2S,6R)-4-((S)-6-chloro-7-(3,5-dimethyl-1H-indazol-4-yl)-2-(3-(dimethylamino)azetidin-1-yl)-8-fluoroquinazolin-4-yl)-2,6-dimethylpiperazin-1-yl)prop-2-en-1-one]	+ (+ indicates binding activity greater than 0% and up to 50%)
C=CC(=O)N1[C@H](C)CN(c2nc(N3CC(N(C)C)C3)nc3c(F)c(-c4c(C)ccc5[nH]nc(C)c45)c(Cl)cc23)C[C@@H]1C (atropisomer, axis not shown) [Compound 152, 1-((2S,6R)-4-((R)-6-chloro-7-(3,5-dimethyl-1H-indazol-4-yl)-2-2(3-(dimethylamino)azetidin-1-yl)-8-fluoroquinazolin-4-yl)-2,6-dimethylpiperazin-1-yl)prop-2-en-1-one]	+++ (+++ indicates binding activity greater than 80%)
C=CC(=O)N1C[C@H](C)N(c2nc(OCCCN(C)C)nc3c(F)c(-c4c(C)ccc5cnn(C)c45)c(Cl)cc23)C[C@H]1C (atropisomer, axis not shown) [Compound 153, 1-((2R,5S)-4-((S)-6-chloro-7-(1,6-dimethyl-1H-indazol-7-yl)-2-(3-(dimethylamino)pro-poxy)-8-fluoroquinazolin-4-yl)-2,5-dimethylpiperazin-1-yl)prop-2-en-1-one]	+ (+ indicates binding activity greater than 0% and up to 50%)
C=CC(=O)N1C[C@H](C)N(c2nc(OCCCN(C)C)nc3c(F)c(-c4c(C)ccc5cnn(C)c45)c(Cl)cc23)C[C@H]1C (atropisomer, axis not shown) [Compound 154, 1-((2R,5S)-4-((R)-6-chloro-7-(1,6-dimethyl-1H-indazol-7-yl)-2-(3-(dimethylamino)pro-poxy)-8-fluoroquinazolin-4-yl)-2,5-dimethylpiperazin-1-yl)prop-2-en-1-one]	+++ (+++ indicates binding activity greater than 80%)
C=CC(=O)N1C[C@H](C)N(c2nc(N3CC(N(C)C)C3)nc3c(F)c(-c4c(F)ccc5cnn(C)c45)c(Cl)cc23)C[C@H]1C (atropisomer, axis not shown) [Compound 155, 1-((2R,5S)-4-((R)-6-chloro-2-(3-(dimethylamino)azetidin-1-yl)-8-fluoro-7-(6-fluoro-1-methyl-1H-indazol-7-yl)quinazolin-4-yl)-2,5-dimethylpiperazin-1-yl)prop-2-en-1-one]	+ (+ indicates binding activity greater than 0% and up to 50%)
C=CC(=O)N1C[C@H](C)N(c2nc(N3CC(N(C)C)C3)nc3c(F)c(-c4c(F)ccc5cnn(C)c45)c(Cl)cc23)C[C@H]1C (atropisomer, axis not shown) [Compound 156, 1-((2R,5S)-4-((S)-6-chloro-2-(3-(dimethylamino)azetidin-1-yl)-8-fluoro-7-(6-fluoro-1-methyl-1H-indazol-7-yl)quinazolin-4-yl)-2,5-dimethylpiperazin-1-yl)prop-2-en-1-one]	+++ (+++ indicates binding activity greater than 80%)
C=CC(=O)N1C[C@H](C)N(c2nc(OC3CCN(C(C)C)CC3)nc3c(F)c(-c4c(C)ccc5cnn(C)c45)c(Cl)cc23)C[C@H]1C (atropisomer, axis not shown) [Compound 166, 1-((2R,5S)-4-((S)-6-chloro-7-(1,6-dimethyl-1H-indazol-7-yl)-8-fluoro-2-(1-isopropylpiperidin-4-yloxy)quinazolin-4-yl)-2,5-dimethylpiperazin-1-yl)prop-2-en-1-one]	+ (+ indicates binding activity greater than 0% and up to 50%)
C=CC(=O)N1C[C@H](C)N(c2nc(OC3CCN(C(C)C)CC3)nc3c(F)c(-c4c(C)ccc5cnn(C)c45)c(Cl)cc23)C[C@H]1C (atropisomer, axis not shown) [Compound 167, 1-((2R,5S)-4-((R)-6-chloro-7-(1,6-dimethyl-1H-indazol-7-yl)-8-fluoro-2-(1-isopropylpiperidin-4-yloxy)quinazolin-4-yl)-2,5-dimethylpiperazin-1-yl)prop-2-en-1-one]	+++ (+++ indicates binding activity greater than 80%)
C=CC(=O)N1C[C@H](C)N(c2nc(OCCN3CCN(C)CC3)nc3c(F)c(-c4c(C)ccc5cnn(C)c45)c(Cl)cc23)C[C@H]1C (atropisomer, axis not shown) [Compound 168, 1-((2R,5S)-4-((S)-6-chloro-7-(1,6-dimethyl-1H-indazol-7-yl)-8-fluoro-2-(2-(4-methylpiperazin-1-yl)ethoxy)quinazolin-4-yl)-2,5-dimethylpiperazin-1-yl)prop-2-en-1-one]	+ (+ indicates binding activity greater than 0% and up to 50%)
C=CC(=O)N1C[C@H](C)N(c2nc(OCCN3CCN(C)CC3)nc3c(F)c(-c4c(C)ccc5cnn(C)c45)c(Cl)cc23)C[C@H]1C (atropisomer, axis not shown) [Compound 169, 1-((2R,5S)-4-((R)-6-chloro-7-(1,6-dimethyl-1H-indazol-7-yl)-8-fluoro-2-(2-(4-methylpiperazin-1-yl)ethoxy)quinazolin-4-yl)-2,5-dimethylpiperazin-1-yl)prop-2-en-1-one]	+++ (+++ indicates binding activity greater than 80%)
C=CC(=O)N1C[C@H](C)N(c2nc(N3CC(NC)C3)nc3c(F)c(-c4c(C)ccc5cnn(C)c45)c(Cl)cc23)C[C@H]1C (atropisomer, axis not shown) [Compound 170, 1-((2R,5S)-4-((R)-6-chloro-7-(1,6-dimethyl-1H-indazol-7-yl)-8-fluoro-2-(3-(methylamino)azetidin-1-yl)quinazolin-4-yl)-2,5-dimethylpiperazin-1-yl)prop-2-en-1-one]	+++ (+++ indicates binding activity greater than 80%)
C=CC(=O)N1C[C@H](C)N(c2nc(N3CC(N(C)C)C3)nc3c(F)c(-c4c(F)ccc5cnn(C6CC6)c45)c(Cl)cc23)C[C@H]1C (atropisomer, axis not shown) [Compound 201, 1-((2R,5S)-4-((S)-6-chloro-7-(1-cyclopropyl-6-fluoro-1H-indazol-7-yl)-2-(3-(dimethylamino)azetidin-1-yl)-8-fluoroquinazolin-4-yl)-2,5-dimethylpiperazin-1-yl)prop-2-en-1-one]	+++ (+++ indicates binding activity greater than 80%)
C=CC(=O)N1C[C@H](C)N(c2nc(N3CC(NC)C3)nc3c(F)c(-c4c(C)ccc5cnn(C)c45)c(Cl)cc23)C[C@H]1C (atropisomer, axis not shown) [Compound 206, 1-((2R,5S)-4-((R)-6-chloro-7-(1,6-dimethyl-1H-indazol-7-yl)-8-fluoro-2-(3-(methylamino)azetidin-1-yl)quinazolin-4-yl)-2,5-dimethylpiperazin-1-yl)prop-2-en-1-one]	+++ (+++ indicates binding activity greater than 80%)
